{
  "source": "paper PMC12221989",
  "about": "“One-carbon homologation of alkenes” (Nature, 2025)",
  "key": {"in vitro": {"experiment": "in vitro", "details": "human", "description": "Metabolic stability assay\nHepatic microsomal stability assays were conducted by Charles River Laboratories. Assays were performed in duplicate.\nThe stability of the test compound (1 µM) was measured following incubation at 37 °C with […] (0.5 mg protein/mL) in the presence of the cofactor, NADPH.\nIncubates were prepared in duplicate, with aliquots removed at 0, 5, 10, 20 and 40 minutes and reactions terminated, and the compound was extracted by the addition of solvent. The disappearance of the parent compound was be monitored by LC-MS/MS and the half-life determined over the time-course of incubation. The half-life value was used to calculate the in vitro intrinsic clearance expressed as µL/min/mg protein.\nTable S11. Metabolic Stability Data\nHalf- Half- Half- Clint Clint Mean Clint\nCompound Cofactor life life Life (uL/min/mg (uL/min/mg (uL/min/mg Species (min) (min) (min) protn) n=1 protn) n=2 protn) (results)"}, "T cell proliferation": {"system": "T cell proliferation", "details": "Fig. 1a; cited from earlier work", "from_the_text": "Fig. 1 Evolution of a strategy for one-carbon alkene homologation. a, The effect of homologues on biological activity: side chain length compared with immunosuppressive activity in a family of natural products. b, Homologation processes for common functional groups. c, Generally adopted sequence for alkene homologation. d, Design plan for a catalytic one-carbon alkene homologation process. TEXT PRINTED IN THE PICTURE: (a) R = CH3 FK-523 (FR-900523): T cell proliferation IC50 (nM): 2.72 | (a) R = CH2CH3 FK-520 (ascomycin): T cell proliferation IC50 (nM): 0.69 | (a) R = CH2CH2CH3: T cell prolife ..."}, "Human Cyclophilin A": {"molecular_target": "Human Cyclophilin A (Homo sapiens, UniProt P62937)", "sequence (P62937 whole entry)": "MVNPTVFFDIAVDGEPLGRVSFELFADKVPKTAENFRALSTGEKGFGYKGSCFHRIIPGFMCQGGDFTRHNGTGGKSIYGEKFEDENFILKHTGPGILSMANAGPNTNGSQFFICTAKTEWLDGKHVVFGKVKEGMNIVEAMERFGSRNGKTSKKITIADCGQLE", "experiment": "PPIase TR-FRET competitive binding assay", "description": "PPIase TR-FRET competitive binding assay\nCyclophilin A assays were conducted by Eurofins Integrated Discovery UK Ltd (EID) to determine the inhibitory activity of the analogues against the Human Cyclophilin A in a TR-FRET Competitive Binding assay. Assays were performed in duplicate, with Kd values calculated from mean averages. […]\nbinding to the CypA enzyme: the CypA enzyme, tagged with a polyhistidine sequence, forms a complex with an anti-6xHis antibody labelled with a fluorescent donor, F(d), and the enzyme […]\nCompounds are diluted from DMSO stocks to 50-fold the final concentration and then in assay buffer to 2-fold the final assay plate concentration. An equal volume of compound is added to the master mix in the assay plate containing the enzyme/antibody/ligand complex, with a final concentration of detergent of 0.01%. This is incubated for 30 mins at room temperature and the plate read at 2 wavelengths (A and B) to detect emission from F(d) and F(a), respectively. The ratio B/A is calculated, blank subtracted and either expressed as a percentage of the ‘no inhibitor’ control or the blank subtracted values are plotted against the inhibitor concentration in Log10 Molar and fitted using one site Ki nonlinear regression to determine the Kd. Where possible, compound Kds are determined from duplicate data points. Each assay plate is set up with ‘no enzyme’ blanks and ‘no inhibitor’ controls, which are used to determine the Z’ value for each plate."}, "[1]": {"system": "calcineurin in the presence of Cyclophilin A", "experiment": "Calcineurin inhibition assay (phosphatase activity in the presence of Cyclophilin A)", "type": "biochemical", "details": "in vitro calcineurin phosphatase activity assay", "description": "Calcineurin inhibition assay\nCalcineurin inhibition assays were conducted by Eurofins Integrated Discovery UK Ltd (EID) to determine the effect of compounds on the activity of calcineurin in the presence of Cyclophilin A. Assays were performed in duplicate, with IC50 values calculated from mean […]\nCompounds were diluted with and without immunophilin (CypA) in a 96-well plate. After addition of calcineurin/calmodulin complex, the plate was incubated at 30 °C for 10 minutes.\nThe addition of the RII phosphopeptide substrate initiated the reaction, and the plate was […]\nThe reaction was stopped by the addition of Malachite green reagent. The plate was incubated at room temperature to allow colour development (5 – 20 mins). After sufficient colour has developed, the absorbance is read at 620 nm. Blank subtracted absorbance readings are plotted against compound concentration to determine IC50 values or % inhibition at the top concentration."}},
  "data": [
    {"smiles": "COc1ccc2c(c1)[C@]13CCCC[C@@H]1[C@H](C2)N(C)CC3", "note": "[Dextromethorphan, reference compound]", "values": [
      {"measurement": "Clint (uL/min/mg protn) n=1", "setting": "in vitro", "result": 29},
      {"measurement": "Clint (uL/min/mg protn) n=2", "setting": "in vitro", "result": 29},
      {"measurement": "Half-Life (min) (Mean)", "setting": "in vitro", "result": 48, "unit": "min"},
      {"measurement": "Half-life (min) n=1", "setting": "in vitro", "result": 49, "unit": "min"},
      {"measurement": "Half-life (min) n=2", "setting": "in vitro", "result": 47, "unit": "min"},
      {"measurement": "Mean Clint (uL/min/mg protn)", "setting": "in vitro", "result": 29}
    ]},
    {"smiles": "CC[C@@H]1/C=C(\\C)C[C@H](C)C[C@H](OC)[C@H]2O[C@@](O)(C(=O)C(=O)N3CCCC[C@H]3C(=O)O[C@H](/C(C)=C/[C@@H]3CC[C@@H](O)[C@H](OC)C3)[C@H](C)[C@@H](O)CC1=O)[C@H](C)C[C@@H]2OC", "note": "[FK-520, ascomycin]", "values": [
      {"measurement": "IC50", "setting": "T cell proliferation", "result": 0.69, "unit": "nM"}
    ]},
    {"smiles": "CO[C@H]1C[C@@H](C)C/C(C)=C\\[C@@H](C)C(=O)C[C@H](O)[C@@H](C)[C@@H](/C(C)=C/[C@@H]2CC[C@@H](O)[C@H](OC)C2)OC(=O)[C@@H]2CCCCN2C(=O)C(=O)[C@]2(O)O[C@H]1[C@@H](OC)C[C@H]2C", "note": "[FK-523]", "values": [
      {"measurement": "IC50", "setting": "T cell proliferation", "result": 2.72, "unit": "nM"}
    ]},
    {"smiles": "Cc1ncc2n1-c1ccc(Cl)cc1C(c1ccccc1F)=NC2", "note": "[Midazolam, reference compound]", "values": [
      {"measurement": "Clint (uL/min/mg protn) n=1", "setting": "in vitro", "result": 277},
      {"measurement": "Clint (uL/min/mg protn) n=2", "setting": "in vitro", "result": 277},
      {"measurement": "Half-Life (min) (Mean)", "setting": "in vitro", "result": 5, "unit": "min"},
      {"measurement": "Half-life (min) n=1", "setting": "in vitro", "result": 5, "unit": "min"},
      {"measurement": "Half-life (min) n=2", "setting": "in vitro", "result": 5, "unit": "min"},
      {"measurement": "Mean Clint (uL/min/mg protn)", "setting": "in vitro", "result": 277}
    ]},
    {"smiles": "CCCC1C=C(C)CC(C)CC(OC)C2OC(O)(C(=O)C(=O)N3CCCCC3C(=O)OC(C(C)=CC3CCC(O)C(OC)C3)C(C)C(O)CC1=O)C(C)CC2OC", "note": "(stereo not shown) [R = CH2CH2CH3]", "values": [
      {"measurement": "IC50", "setting": "T cell proliferation", "result": 0.93, "unit": "nM"}
    ]},
    {"smiles": "C=CC[C@@H]1/C=C(\\C)C[C@H](C)C[C@H](OC)[C@H]2O[C@@](O)(C(=O)C(=O)N3CCCC[C@H]3C(=O)O[C@H](/C(C)=C/[C@@H]3CC[C@@H](O)[C@H](OC)C3)[C@H](C)[C@@H](O)CC1=O)[C@H](C)C[C@@H]2OC", "note": "[Tacrolimus, tacrolimus]", "values": [
      {"measurement": "IC50", "setting": "T cell proliferation", "result": 0.18, "unit": "nM"}
    ]},
    {"smiles": "[2H]C([2H])([2H])/C=C/CC[C@@H](C)[C@@H](O)[C@H]1C(=O)N[C@@H](CC)C(=O)N(C)CC(=O)N(C)[C@@H](CC(C)C)C(=O)N[C@@H](C(C)C)C(=O)N(C)[C@@H](CC(C)C)C(=O)N[C@@H](C)C(=O)N[C@H](C)C(=O)N(C)[C@@H](CC(C)C)C(=O)N(C)[C@@H](CC(C)C)C(=O)N(C)[C@@H](C(C)C)C(=O)N1C", "note": "[compound 23]", "values": [
      {"measurement": "half-life at 1 µM", "setting": "in vitro; both, liver microsomes", "result": 31, "unit": "min"},
      {"measurement": "Clint (uL/min/mg protn) n=1", "setting": "in vitro", "result": 44, "unit": "uL/min/mg protn"},
      {"measurement": "Clint (uL/min/mg protn) n=2", "setting": "in vitro", "result": 45, "unit": "uL/min/mg protn"},
      {"measurement": "Half-life (min) n=1", "setting": "in vitro", "result": 32, "unit": "min"},
      {"measurement": "Half-life (min) n=2", "setting": "in vitro", "result": 31, "unit": "min"},
      {"measurement": "Mean Clint (uL/min/mg protn)", "setting": "in vitro", "result": 44, "unit": "uL/min/mg protn"},
      {"measurement": "Kd", "setting": "Human Cyclophilin A", "result": 45.9, "unit": "nM"}
    ]},
    {"smiles": "CC[C@@H]1NC(=O)[C@H]([C@H](O)[C@H](C)CC/C=C\\F)N(C)C(=O)[C@H](C(C)C)N(C)C(=O)[C@H](CC(C)C)N(C)C(=O)[C@H](CC(C)C)N(C)C(=O)[C@@H](C)NC(=O)[C@H](C)NC(=O)[C@H](CC(C)C)N(C)C(=O)[C@H](C(C)C)NC(=O)[C@H](CC(C)C)N(C)C(=O)CN(C)C1=O", "note": "[compound 24]", "values": [
      {"measurement": "Clint (uL/min/mg protn) n=1", "setting": "in vitro", "result": 48, "unit": "uL/min/mg protn"},
      {"measurement": "Clint (uL/min/mg protn) n=2", "setting": "in vitro", "result": 53, "unit": "uL/min/mg protn"},
      {"measurement": "Half-life (min) n=1", "setting": "in vitro", "result": 29, "unit": "min"},
      {"measurement": "Half-life (min) n=2", "setting": "in vitro", "result": 26, "unit": "min"},
      {"measurement": "Mean Clint (uL/min/mg protn)", "setting": "in vitro", "result": 51, "unit": "uL/min/mg protn"},
      {"measurement": "decrease in phosphatase activity compared with cyclosporine A", "setting": "[1]", "result": 10, "unit": "fold"}
    ]},
    {"smiles": "C=CCCC[C@@H](C)[C@@H](O)[C@H]1C(=O)N[C@@H](CC)C(=O)N(C)CC(=O)N(C)[C@@H](CC(C)C)C(=O)N[C@@H](C(C)C)C(=O)N(C)[C@@H](CC(C)C)C(=O)N[C@@H](C)C(=O)N[C@H](C)C(=O)N(C)[C@@H](CC(C)C)C(=O)N(C)[C@@H](CC(C)C)C(=O)N(C)[C@@H](C(C)C)C(=O)N1C", "note": "[compound 26, homoisocyclosporine A]", "values": [
      {"measurement": "Clint (uL/min/mg protn) n=1", "setting": "in vitro", "result": 69, "unit": "uL/min/mg protn"},
      {"measurement": "Clint (uL/min/mg protn) n=2", "setting": "in vitro", "result": 65, "unit": "uL/min/mg protn"},
      {"measurement": "Mean Clint (uL/min/mg protn)", "setting": "in vitro", "result": 67, "unit": "uL/min/mg protn"},
      {"measurement": "calcineurin inhibition compared with cyclosporine A (in words)", "setting": "[1]", "result": "restored calcineurin inhibition to levels comparable with those of cyclosporine A"},
      {"measurement": "Kd", "setting": "Human Cyclophilin A", "result": 10.2, "unit": "nM"}
    ]}
  ]
}
